Like-named read-outs stand apart in the source and are kept apart here.
What was measured:
[1] = test system: A/Puerto Rico/8/34 (H1N1) influenza virus; format: in vivo, mice; conditions: for Size of chronic post-influenza pneumonia sites (% of the total surface area of the lungs): the lower of the virus doses used, day 15
[2] = test system: A/Vladivostok/2/09 (H1N1) influenza virus; format: in vivo, mice; conditions: for Size of chronic post-influenza pneumonia sites (% of the total surface area of the lungs): the lower of the virus doses used, day 15
[3] = Tamiflu 20 mg/kg, Summary dose, n=28
[4] = Tamiflu 20 mg/kg, Summary dose, n=19

## CCOC(=O)C1=C[C@@H](OC(CC)CC)[C@H](NC(C)=O)[C@@H](N)C1.O=P(O)(O)O [Tamiflu, ethyl(3R,4R,5S)-4-acetamido-5-amino-3-(1-ethylpropoxy)-1-cyclohexene-1-carboxylate phosphate, reference compound]
[1]; Tamiflu
  reduction of the death rate compared to the control: approximately 70%
[1]; [3]
  Average lifetime (LD): 13.9 days
  Increase in LD: 3.6 days
  Index of protection, %: 66.7%
  Mortality rate, %: 21.4%
  Number of survivors: 22
[1]; Tamiflu 20 mg/kg, […], n=13
  Average lifetime (LD): 14.4 days
  Increase in LD: 2.1 days
  Index of protection, %: 67.0%
  Mortality rate, %: 15.4%
  Number of survivors: 11
[1]; Tamiflu 20 mg/kg, […], n=15
  Average lifetime (LD): 13.5 days
  Increase in LD: 5.5 days
  Index of protection, %: 68.5%
  Mortality rate, %: 26.7%
  Number of survivors: 11
[1]; Tamiflu 20 mg/kg
  Size of chronic post-influenza pneumonia sites (% of the total surface area of the lungs): 15 ± 4; %
[2]; Tamiflu 20 mg/kg
  activity against the strain: inactive
  Size of chronic post-influenza pneumonia sites (% of the total surface area of the lungs): 15 ± 5%
[2]; [4]
  Average lifetime (LD): 12.5 days
  Increase in LD: 0.2 days
  Index of protection, %: 14.0%
  Mortality rate, %: 36.8%
  Number of survivors: 12
[2]; Tamiflu 20 mg/kg, […], n=9
  Average lifetime (LD): 13.4 days
  Increase in LD: 0.3 days
  Index of protection, %: 18.5%
  Mortality rate, %: 22.2%
  Number of survivors: 7
[2]; Tamiflu 20 mg/kg, […], n=10
  Average lifetime (LD): 11.7 days
  Increase in LD: 0.3 days
  Index of protection, %: 16.7%
  Mortality rate, %: 50.0%
  Number of survivors: 5

## N-fullerene tris(δ-aminocaproic acid) hydrate [Agent 1]
[1]; 30 mg/kg, Summary dose, n=29
  Average lifetime (LD): 11.8 days
  Increase in LD: 1.4 days
  Mortality rate, %: 55.2%
  Number of survivors: 13
[1]; 30 mg/kg, […], n=14
  Average lifetime (LD): 13.3 days
  Increase in LD: 1.0 days
  Mortality rate, %: 35.7%
  Number of survivors: 9
[1]; 30 mg/kg, […], n=15
  Average lifetime (LD): 10.4 days
  Increase in LD: 2.3 days
  Mortality rate, %: 73.3%
  Number of survivors: 4
[1]; 100 mg/kg, Summary dose, n=30
  Average lifetime (LD): 12.6 days
  Increase in LD: 2.2 days
  Mortality rate, %: 40.0%
  Number of survivors: 18
[1]; 300 mg/kg, Summary dose, n=29
  Average lifetime (LD): 12.5 days
  Increase in LD: 2.2 days
  Mortality rate, %: 31.0%
  Number of survivors: 20
[1]; 300 mg/kg, […], n=14
  Average lifetime (LD): 11.3 days
  Increase in LD: 3.2 days
  Mortality rate, %: 42.9%
  Number of survivors: 8
[1]; 300 mg/kg, […], n=15
  Average lifetime (LD): 13.7 days
  Increase in LD: 1.3 days
  Mortality rate, %: 20.0%
  Number of survivors: 12
[1]; 300 mg/kg
  Size of chronic post-influenza pneumonia sites (% of the total surface area of the lungs): 13 ± 3%
[2]; 30 mg/kg, Summary dose, n=25
  Average lifetime (LD): 13.7 days
  Increase in LD: 1.4 days
  Mortality rate, %: 28.0%
  Number of survivors: 18
[2]; 30 mg/kg, […], n=12
  Average lifetime (LD): 13.2 days
  Increase in LD: 1.8 days
  Mortality rate, %: 41.7%
  Number of survivors: 7
[2]; 30 mg/kg, […], n=13
  Average lifetime (LD): 14.2 days
  Increase in LD: 1.0 days
  Mortality rate, %: 15.4%
  Number of survivors: 11
[2]; 100 mg/kg, Summary dose, n=22
  Average lifetime (LD): 13.6 days
  Increase in LD: 1.3 days
  Mortality rate, %: 27.3%
  Number of survivors: 16
[2]; 100 mg/kg, […], n=10
  Average lifetime (LD): 14.0 days
  Increase in LD: 0.8 days
  Mortality rate, %: 20.0%
  Number of survivors: 8
[2]; 100 mg/kg, […], n=12
  Average lifetime (LD): 13.3 days
  Increase in LD: 1.9 days
  Mortality rate, %: 33.3%
  Number of survivors: 8
[2]; 300 mg/kg, Summary dose, n=26
  Average lifetime (LD): 14.2 days
  Increase in LD: 1.8 days
  Mortality rate, %: 15.4%
  Number of survivors: 22
[2]; 300 mg/kg
  Size of chronic post-influenza pneumonia sites (% of the total surface area of the lungs): 7 ± 2%

Reference: patent US9096492B2, “Hydrated N-fullerene amino acids, method for producing the latter, and pharmaceutical compositions on the basis thereof” (priority 2011, dated 2015)
